Assay results as given in patent publication US8192962B2, “Processes for detecting toxic substances” (Daikin Industries, Ltd., priority 2001, dated 2012).

Test system: Metabolism protein genes
Experiment: DNA chip mRNA expression in yeast, metabolism protein genes (Table 7)
Type: cell-based, Saccharomyces cerevisiae S288C
Procedure, shortened: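 Expression change after 2 h toxicant exposure (growth-inhibiting, sub-lethal) of log-phase S. cerevisiae S288C at 25° C. Oligo-dT-purified mRNA was labeled with Cy3-dUTP or Cy5-dUTP and hybridized >12 h at 65° C. to a genome-wide chip; ratio of scanned fluorescence to control.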

Na2As [(1)]
2.0: level of expressed mRNA in the presence/in the absence of chemical substance (yeast gene YDR178W)
3.0: The level of expressed mRNA in the presence of chemical substance/The level of expressed mRNA in the absence of chemical substance (yeast gene YBR256C)
0.9: level of expressed mRNA in the presence/in the absence of chemical substance (yeast gene YBR003W) | level of expressed mRNA in the presence/in the absence of chemical substance (yeast gene YER120W) | level of expressed mRNA in the presence/in the absence of chemical substance (yeast gene YGL115W) | level of expressed mRNA in the presence/in the absence of chemical substance (yeast gene YGL205W) | The level of expressed mRNA in the presence of chemical substance/The level of expressed mRNA in the absence of chemical substance (yeast gene YGR194C) | level of expressed mRNA in the presence/in the absence of chemical substance (yeast gene YGR288W) | The level of expressed mRNA in the presence of chemical substance/The level of expressed mRNA in the absence of chemical substance (yeast gene YJL088W) | level of expressed mRNA in the presence/in the absence of chemical substance (yeast gene YJL167W)
1.3: level of expressed mRNA in the presence/in the absence of chemical substance (yeast gene YBR011C) | The level of expressed mRNA in the presence of chemical substance/The level of expressed mRNA in the absence of chemical substance (yeast gene YER069W) | The level of expressed mRNA in the presence of chemical substance/The level of expressed mRNA in the absence of chemical substance (yeast gene YFR047C) | The level of expressed mRNA in the presence of chemical substance/The level of expressed mRNA in the absence of chemical substance (yeast gene YGL248W) | The level of expressed mRNA in the presence of chemical substance/The level of expressed mRNA in the absence of chemical substance (yeast gene YGR282C) | level of expressed mRNA in the presence/in the absence of chemical substance (yeast gene YHR210C)
0.6: The level of expressed mRNA in the presence of chemical substance/The level of expressed mRNA in the absence of chemical substance (yeast gene YBR222C) | The level of expressed mRNA in the presence of chemical substance/The level of expressed mRNA in the absence of chemical substance (yeast gene YCL009C) | The level of expressed mRNA in the presence of chemical substance/The level of expressed mRNA in the absence of chemical substance (yeast gene YCL064C) | The level of expressed mRNA in the presence of chemical substance/The level of expressed mRNA in the absence of chemical substance (yeast gene YGL126W) | level of expressed mRNA in the presence/in the absence of chemical substance (yeast gene YHR025W) | level of expressed mRNA in the presence/in the absence of chemical substance (yeast gene YJR143C)
2.5: The level of expressed mRNA in the presence of chemical substance/The level of expressed mRNA in the absence of chemical substance (yeast gene YGR055W)
1.2: level of expressed mRNA in the presence/in the absence of chemical substance (yeast gene YDR123C) | The level of expressed mRNA in the presence of chemical substance/The level of expressed mRNA in the absence of chemical substance (yeast gene YDR502C) | The level of expressed mRNA in the presence of chemical substance/The level of expressed mRNA in the absence of chemical substance (yeast gene YDR516C) | level of expressed mRNA in the presence/in the absence of chemical substance (yeast gene YFL011W) | The level of expressed mRNA in the presence of chemical substance/The level of expressed mRNA in the absence of chemical substance (yeast gene YGL209W) | The level of expressed mRNA in the presence of chemical substance/The level of expressed mRNA in the absence of chemical substance (yeast gene YGR256W) | The level of expressed mRNA in the presence of chemical substance/The level of expressed mRNA in the absence of chemical substance (yeast gene YIR034C) | The level of expressed mRNA in the presence of chemical substance/The level of expressed mRNA in the absence of chemical substance (yeast gene YJL068C) | The level of expressed mRNA in the presence of chemical substance/The level of expressed mRNA in the absence of chemical substance (yeast gene YJL099W) | The level of expressed mRNA in the presence of chemical substance/The level of expressed mRNA in the absence of chemical substance (yeast gene YJL219W)
19.0: The level of expressed mRNA in the presence of chemical substance/The level of expressed mRNA in the absence of chemical substance (yeast gene YFL056C)
3.4: The level of expressed mRNA in the presence of chemical substance/The level of expressed mRNA in the absence of chemical substance (yeast gene YFL014W)
0.7: The level of expressed mRNA in the presence of chemical substance/The level of expressed mRNA in the absence of chemical substance (yeast gene YBR029C) | The level of expressed mRNA in the presence of chemical substance/The level of expressed mRNA in the absence of chemical substance (yeast gene YDR497C) | level of expressed mRNA in the presence/in the absence of chemical substance (yeast gene YEL063C) | level of expressed mRNA in the presence/in the absence of chemical substance (yeast gene YER015W) | level of expressed mRNA in the presence/in the absence of chemical substance (yeast gene YHR123W) | The level of expressed mRNA in the presence of chemical substance/The level of expressed mRNA in the absence of chemical substance (yeast gene YHR137W) | The level of expressed mRNA in the presence of chemical substance/The level of expressed mRNA in the absence of chemical substance (yeast gene YJR148W)
1.6: level of expressed mRNA in the presence/in the absence of chemical substance (yeast gene YCR010C) | The level of expressed mRNA in the presence of chemical substance/The level of expressed mRNA in the absence of chemical substance (yeast gene YCR098C) | level of expressed mRNA in the presence/in the absence of chemical substance (yeast gene YDR050C) | level of expressed mRNA in the presence/in the absence of chemical substance (yeast gene YDR277C) | The level of expressed mRNA in the presence of chemical substance/The level of expressed mRNA in the absence of chemical substance (yeast gene YER053C) | level of expressed mRNA in the presence/in the absence of chemical substance (yeast gene YER081W) | The level of expressed mRNA in the presence of chemical substance/The level of expressed mRNA in the absence of chemical substance (yeast gene YFL030W) | The level of expressed mRNA in the presence of chemical substance/The level of expressed mRNA in the absence of chemical substance (yeast gene YJL031C)
20.9: The level of expressed mRNA in the presence of chemical substance/The level of expressed mRNA in the absence of chemical substance (yeast gene YFL057C)
1.5: level of expressed mRNA in the presence/in the absence of chemical substance (yeast gene YGR096W) | The level of expressed mRNA in the presence of chemical substance/The level of expressed mRNA in the absence of chemical substance (yeast gene YIL107C)
0.5: The level of expressed mRNA in the presence of chemical substance/The level of expressed mRNA in the absence of chemical substance (yeast gene YBR023C) | The level of expressed mRNA in the presence of chemical substance/The level of expressed mRNA in the absence of chemical substance (yeast gene YCR048W) | The level of expressed mRNA in the presence of chemical substance/The level of expressed mRNA in the absence of chemical substance (yeast gene YFL031W) | The level of expressed mRNA in the presence of chemical substance/The level of expressed mRNA in the absence of chemical substance (yeast gene YGL022W) | level of expressed mRNA in the presence/in the absence of chemical substance (yeast gene YGR204W)
1.8: The level of expressed mRNA in the presence of chemical substance/The level of expressed mRNA in the absence of chemical substance (yeast gene YBR183W) | The level of expressed mRNA in the presence of chemical substance/The level of expressed mRNA in the absence of chemical substance (yeast gene YHR176W)
0.8: level of expressed mRNA in the presence/in the absence of chemical substance (yeast gene YCR034W) | level of expressed mRNA in the presence/in the absence of chemical substance (yeast gene YDR284C) | level of expressed mRNA in the presence/in the absence of chemical substance (yeast gene YDR345C) | The level of expressed mRNA in the presence of chemical substance/The level of expressed mRNA in the absence of chemical substance (yeast gene YDR380W) | The level of expressed mRNA in the presence of chemical substance/The level of expressed mRNA in the absence of chemical substance (yeast gene YER026C) | The level of expressed mRNA in the presence of chemical substance/The level of expressed mRNA in the absence of chemical substance (yeast gene YER178W) | level of expressed mRNA in the presence/in the absence of chemical substance (yeast gene YGR191W) | The level of expressed mRNA in the presence of chemical substance/The level of expressed mRNA in the absence of chemical substance (yeast gene YIL154C) | The level of expressed mRNA in the presence of chemical substance/The level of expressed mRNA in the absence of chemical substance (yeast gene YJL172W) | level of expressed mRNA in the presence/in the absence of chemical substance (yeast gene YJL216C)
1.1: The level of expressed mRNA in the presence of chemical substance/The level of expressed mRNA in the absence of chemical substance (yeast gene YAL012W) | level of expressed mRNA in the presence/in the absence of chemical substance (yeast gene YDR483W) | The level of expressed mRNA in the presence of chemical substance/The level of expressed mRNA in the absence of chemical substance (yeast gene YER096W) | The level of expressed mRNA in the presence of chemical substance/The level of expressed mRNA in the absence of chemical substance (yeast gene YHR174W) | level of expressed mRNA in the presence/in the absence of chemical substance (yeast gene YJR077C)
1.0: The level of expressed mRNA in the presence of chemical substance/The level of expressed mRNA in the absence of chemical substance (yeast gene YAL038W) | level of expressed mRNA in the presence/in the absence of chemical substance (yeast gene YBR020W) | level of expressed mRNA in the presence/in the absence of chemical substance (yeast gene YDR400W) | level of expressed mRNA in the presence/in the absence of chemical substance (yeast gene YDR408C) | level of expressed mRNA in the presence/in the absence of chemical substance (yeast gene YGL012W) | The level of expressed mRNA in the presence of chemical substance/The level of expressed mRNA in the absence of chemical substance (yeast gene YGR037C) | level of expressed mRNA in the presence/in the absence of chemical substance (yeast gene YIL006W) | The level of expressed mRNA in the presence of chemical substance/The level of expressed mRNA in the absence of chemical substance (yeast gene YIL155C) | The level of expressed mRNA in the presence of chemical substance/The level of expressed mRNA in the absence of chemical substance (yeast gene YIR036C) | level of expressed mRNA in the presence/in the absence of chemical substance (yeast gene YJL121C)
1.7: level of expressed mRNA in the presence/in the absence of chemical substance (yeast gene YDR073W) | The level of expressed mRNA in the presence of chemical substance/The level of expressed mRNA in the absence of chemical substance (yeast gene YIL045W)
1.4: The level of expressed mRNA in the presence of chemical substance/The level of expressed mRNA in the absence of chemical substance (yeast gene YDR019C) | The level of expressed mRNA in the presence of chemical substance/The level of expressed mRNA in the absence of chemical substance (yeast gene YHR111W)
2.7: The level of expressed mRNA in the presence of chemical substance/The level of expressed mRNA in the absence of chemical substance (yeast gene YJR137C)
